# What was measured:
# Details in all cases: 2.5E−05M
# M5 (h) = molecular target: T1, M5 (h) (Homo sapiens, UniProt P08912); test: Abuse liability binding screen, M5 (h) receptor (antagonist radioligand)
# T1 sequence (P08912 1-532): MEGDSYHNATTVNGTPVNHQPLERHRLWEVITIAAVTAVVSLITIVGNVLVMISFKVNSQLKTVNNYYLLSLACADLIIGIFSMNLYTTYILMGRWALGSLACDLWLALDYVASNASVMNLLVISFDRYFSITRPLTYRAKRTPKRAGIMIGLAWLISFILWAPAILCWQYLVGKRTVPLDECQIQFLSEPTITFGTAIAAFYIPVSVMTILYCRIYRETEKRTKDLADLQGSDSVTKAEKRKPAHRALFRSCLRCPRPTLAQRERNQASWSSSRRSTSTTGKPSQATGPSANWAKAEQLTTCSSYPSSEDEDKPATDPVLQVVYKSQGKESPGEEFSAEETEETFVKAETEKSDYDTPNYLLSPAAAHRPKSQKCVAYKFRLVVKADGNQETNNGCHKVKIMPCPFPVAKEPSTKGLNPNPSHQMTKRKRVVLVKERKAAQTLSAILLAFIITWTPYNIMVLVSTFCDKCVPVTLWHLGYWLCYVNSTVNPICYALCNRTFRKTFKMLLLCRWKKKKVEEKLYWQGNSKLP
# Description: (§1) […]. The abuse liability screen included 44 targets (receptors, transporters, on gated-channel systems) related to the dopamine, norepinephrine, serotonin, gamma-aminobutyric acid (GABA), acetylcholine, N-methyl-D-aspartate (NMDA) cannabinoid and opioid neurotransmitter systems as recommended in FDA Draft guidance on Assessment of Abuse Potential of Drugs, January 2010.
# (§2) Compound binding was calculated as a % inhibition of the binding of a radioactively labeled ligand specific for each target.
# (§3) Results showing an inhibition or stimulation higher than 50% are considered to represent significant effects of the test compounds.
# 5-HT2c (h) = molecular target: T2, 5-HT2c (h) (Homo sapiens, UniProt P28335); test: Abuse liability binding screen, 5-HT2c (h) (agonist radioligand)
# T2 sequence (P28335 33-458): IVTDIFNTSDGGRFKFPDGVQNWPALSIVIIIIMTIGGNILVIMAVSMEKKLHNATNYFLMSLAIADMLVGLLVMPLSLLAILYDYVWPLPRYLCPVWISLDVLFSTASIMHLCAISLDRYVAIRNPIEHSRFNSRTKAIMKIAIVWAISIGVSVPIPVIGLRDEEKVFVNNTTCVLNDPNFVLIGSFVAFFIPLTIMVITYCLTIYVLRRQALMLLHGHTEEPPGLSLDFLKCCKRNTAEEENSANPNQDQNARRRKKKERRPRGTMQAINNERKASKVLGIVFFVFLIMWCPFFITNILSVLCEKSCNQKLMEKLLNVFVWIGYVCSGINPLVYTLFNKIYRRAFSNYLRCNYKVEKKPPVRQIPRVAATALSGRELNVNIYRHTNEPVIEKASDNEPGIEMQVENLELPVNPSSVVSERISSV
# Description: as §2
# NMDA = test: Abuse liability binding screen, NMDA (antagonist radioligand)
# Description: as §2
# OX2 (h) = molecular target: T3, OX2 (h) (Homo sapiens, UniProt O43614); test: Abuse liability binding screen, OX2 (h) (agonist radioligand)
# T3 sequence (O43614 1-444): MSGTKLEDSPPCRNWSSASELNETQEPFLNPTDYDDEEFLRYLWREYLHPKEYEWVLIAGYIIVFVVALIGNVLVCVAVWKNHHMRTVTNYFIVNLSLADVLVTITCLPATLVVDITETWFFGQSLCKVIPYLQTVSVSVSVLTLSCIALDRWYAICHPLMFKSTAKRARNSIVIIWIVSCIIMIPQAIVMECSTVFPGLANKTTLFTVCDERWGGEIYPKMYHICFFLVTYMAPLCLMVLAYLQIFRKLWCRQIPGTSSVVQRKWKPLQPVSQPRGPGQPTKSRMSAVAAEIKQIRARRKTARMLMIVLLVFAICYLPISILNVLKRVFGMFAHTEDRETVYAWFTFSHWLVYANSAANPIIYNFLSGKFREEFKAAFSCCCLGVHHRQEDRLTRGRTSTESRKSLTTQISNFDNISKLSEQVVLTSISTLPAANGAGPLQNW
# Description: as §1, §2, §3
# 5-HT1A (h) = molecular target: T4, 5-HT1A (h) (Homo sapiens, UniProt P08908); test: Abuse liability binding screen, 5-HT1A (h) (agonist radioligand)
# T4 sequence (P08908 1-422): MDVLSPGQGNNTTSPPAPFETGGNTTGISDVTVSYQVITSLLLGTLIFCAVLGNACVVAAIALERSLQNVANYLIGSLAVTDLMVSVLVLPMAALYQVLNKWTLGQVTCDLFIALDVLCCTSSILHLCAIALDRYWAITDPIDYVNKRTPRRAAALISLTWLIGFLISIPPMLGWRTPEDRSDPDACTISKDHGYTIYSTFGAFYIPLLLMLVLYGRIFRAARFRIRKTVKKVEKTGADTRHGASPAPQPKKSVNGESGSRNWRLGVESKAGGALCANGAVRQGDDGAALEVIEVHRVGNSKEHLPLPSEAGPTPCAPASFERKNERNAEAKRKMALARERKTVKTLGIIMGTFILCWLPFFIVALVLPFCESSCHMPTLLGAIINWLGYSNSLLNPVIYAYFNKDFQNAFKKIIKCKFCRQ
# Description: as §2
smiles,measurement,setting,value
"O=C(O)[C@H]1O[C@@H](Oc2ccc3c4c2O[C@H]2[C@@H](O)CC[C@@]5(O)[C@@H](C3)N(CC3CCC3)CC[C@]425)[C@H](O)[C@@H](O)[C@@H]1O [Compound M5, nalbuphine-3-beta-D-glucuronid]",% Inhibition of Control Specific Binding 1st,M5 (h),9.9%
same,% Inhibition of Control Specific Binding 2nd,M5 (h),0.7%
same,% Inhibition of Control Specific Binding Mean,M5 (h),5.3%
same,% Inhibition of Control Specific Binding 1st,5-HT2c (h),−7.9%
same,% Inhibition of Control Specific Binding 2nd,5-HT2c (h),−8.2%
same,% Inhibition of Control Specific Binding Mean,5-HT2c (h),−8.0%
same,% Inhibition of Control Specific Binding 1st,NMDA,−15.9%
same,% Inhibition of Control Specific Binding 2nd,NMDA,−14.7%
same,% Inhibition of Control Specific Binding 1st,OX2 (h),−3.5%
same,% Inhibition of Control Specific Binding 2nd,OX2 (h),−2.4%
same,% Inhibition of Control Specific Binding Mean,OX2 (h),−2.9%
same,% Inhibition of Control Specific Binding 1st,5-HT1A (h),−7.0%
same,% Inhibition of Control Specific Binding 2nd,5-HT1A (h),3.4%
same,% Inhibition of Control Specific Binding Mean,5-HT1A (h),−1.8%

# From US9624233B2, “Compounds for treating pruritic conditions” (priority 2015, dated 2017)
